Laboratory results as given in publication PMC7996970 (The Biochemical journal, 2020).

Tests used:
[1] = target: isocitrate dehydrogenase 1 (IDH1) (Homo sapiens, UniProt O75874, D273L/R132H); assay: isothermal titration calorimetry; type: binding
[2] = target: isocitrate dehydrogenase 1 (IDH1) (Homo sapiens, UniProt O75874, K217Q); assay: steady-state kinetics, NADPH absorbance at […] nm; type: biochemical
[3] = target: isocitrate dehydrogenase 1 (IDH1) (Homo sapiens, UniProt O75874, D273S); assay: steady-state kinetics, NADPH absorbance at […] nm; type: biochemical
isocitrate dehydrogenase 1 (IDH1) (Homo sapiens, UniProt O75874, D273S), sequence (O75874 2-414 D273S): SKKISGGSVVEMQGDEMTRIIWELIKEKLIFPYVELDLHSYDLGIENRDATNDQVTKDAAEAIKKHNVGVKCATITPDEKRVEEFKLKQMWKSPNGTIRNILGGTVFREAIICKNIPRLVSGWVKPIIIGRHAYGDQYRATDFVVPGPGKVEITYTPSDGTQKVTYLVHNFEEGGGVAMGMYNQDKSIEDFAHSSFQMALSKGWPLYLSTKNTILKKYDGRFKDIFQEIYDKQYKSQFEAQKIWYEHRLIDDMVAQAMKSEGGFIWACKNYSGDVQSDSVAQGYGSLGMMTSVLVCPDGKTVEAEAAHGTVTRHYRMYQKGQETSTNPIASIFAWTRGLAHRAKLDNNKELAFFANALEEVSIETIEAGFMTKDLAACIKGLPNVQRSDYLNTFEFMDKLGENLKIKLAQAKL

[4] = target: isocitrate dehydrogenase 1 (IDH1) (Homo sapiens, UniProt O75874, D273N); assay: steady-state kinetics, NADPH absorbance at […] nm; type: biochemical
isocitrate dehydrogenase 1 (IDH1) (Homo sapiens, UniProt O75874, D273N), sequence (O75874 2-414 D273N): as the sequence (O75874 2-414 D273S) above, with S272N counted along it

[5] = target: isocitrate dehydrogenase 1 (IDH1) (Homo sapiens, UniProt O75874, D273L); assay: steady-state kinetics, NADPH absorbance at […] nm; type: biochemical
isocitrate dehydrogenase 1 (IDH1) (Homo sapiens, UniProt O75874, D273L), sequence (O75874 2-414 D273L): as the sequence (O75874 2-414 D273S) above, with S272L counted along it

[6] = target: isocitrate dehydrogenase 1 (IDH1) (Homo sapiens, UniProt O75874); assay: steady-state kinetics, NADPH absorbance at […] nm; type: biochemical
isocitrate dehydrogenase 1 (IDH1) (Homo sapiens, UniProt O75874), sequence (O75874 2-414): as the sequence (O75874 2-414 D273S) above, with S272D counted along it

[7] = target: isocitrate dehydrogenase 1 (IDH1) (Homo sapiens, UniProt O75874, K217M); assay: steady-state kinetics, NADPH absorbance at […] nm; type: biochemical
isocitrate dehydrogenase 1 (IDH1) (Homo sapiens, UniProt O75874, K217M), sequence (O75874 2-414 K217M): as the sequence (O75874 2-414 D273S) above, with K216M, S272D counted along it

isocitrate dehydrogenase 1 (IDH1) (Homo sapiens, UniProt O75874, K217Q), sequence (O75874 2-414 K217Q): as the sequence (O75874 2-414 D273S) above, with K216Q, S272D counted along it
isocitrate dehydrogenase 1 (IDH1) (Homo sapiens, UniProt O75874, D273L/R132H), sequence (O75874 2-414 R132H/D273L): as the sequence (O75874 2-414 D273S) above, with R131H, S272L counted along it

Cc1ccccc1C(C(=O)NC1CCCCC1)N(C(=O)Cn1ccnc1C)c1cccc(F)c1 (stereo not shown) [AGI-5198]
Kd [1]: 3.3 ± 0.5 µM

O=C(O)CC(C(=O)O)C(O)C(=O)O (stereo not shown) [isocitrate]
Km [2]: 250 ± 20 µM
Km [3]: 12000 ± 3000 µM
Km [4]: 19000 ± 2000 µM
Km [5]: 1900 ± 200 µM
Km [6]: 61 ± 5 µM
Km [7]: 150 ± 20 µM
